Experimental findings from paper PMC6934184, “Selective DNA-PKcs inhibition extends the therapeutic index of localized radiotherapy and chemotherapy” (The Journal of Clinical Investigation, 2019) are described below.

The target in the assay is T1, ULK2 (Homo sapiens, UniProt Q8IYT8).
T1 construct: purchased Thermo Fisher Scientific (Life Technologies) SelectScreen
Nature of the assay: SelectScreen LanthaScreen. Type of assay: binding. The conditions noted are these: read-out: % displacement. An outline of the steps: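 SelectScreen broad panel; activity (Z'LYTE, Adapta) plus binding formats. ATP: Km app for CSF1R Z'LYTE; 10 for CAMK1 Adapta. Readout = % per kinase.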

T1 sequence (Q8IYT8 whole entry): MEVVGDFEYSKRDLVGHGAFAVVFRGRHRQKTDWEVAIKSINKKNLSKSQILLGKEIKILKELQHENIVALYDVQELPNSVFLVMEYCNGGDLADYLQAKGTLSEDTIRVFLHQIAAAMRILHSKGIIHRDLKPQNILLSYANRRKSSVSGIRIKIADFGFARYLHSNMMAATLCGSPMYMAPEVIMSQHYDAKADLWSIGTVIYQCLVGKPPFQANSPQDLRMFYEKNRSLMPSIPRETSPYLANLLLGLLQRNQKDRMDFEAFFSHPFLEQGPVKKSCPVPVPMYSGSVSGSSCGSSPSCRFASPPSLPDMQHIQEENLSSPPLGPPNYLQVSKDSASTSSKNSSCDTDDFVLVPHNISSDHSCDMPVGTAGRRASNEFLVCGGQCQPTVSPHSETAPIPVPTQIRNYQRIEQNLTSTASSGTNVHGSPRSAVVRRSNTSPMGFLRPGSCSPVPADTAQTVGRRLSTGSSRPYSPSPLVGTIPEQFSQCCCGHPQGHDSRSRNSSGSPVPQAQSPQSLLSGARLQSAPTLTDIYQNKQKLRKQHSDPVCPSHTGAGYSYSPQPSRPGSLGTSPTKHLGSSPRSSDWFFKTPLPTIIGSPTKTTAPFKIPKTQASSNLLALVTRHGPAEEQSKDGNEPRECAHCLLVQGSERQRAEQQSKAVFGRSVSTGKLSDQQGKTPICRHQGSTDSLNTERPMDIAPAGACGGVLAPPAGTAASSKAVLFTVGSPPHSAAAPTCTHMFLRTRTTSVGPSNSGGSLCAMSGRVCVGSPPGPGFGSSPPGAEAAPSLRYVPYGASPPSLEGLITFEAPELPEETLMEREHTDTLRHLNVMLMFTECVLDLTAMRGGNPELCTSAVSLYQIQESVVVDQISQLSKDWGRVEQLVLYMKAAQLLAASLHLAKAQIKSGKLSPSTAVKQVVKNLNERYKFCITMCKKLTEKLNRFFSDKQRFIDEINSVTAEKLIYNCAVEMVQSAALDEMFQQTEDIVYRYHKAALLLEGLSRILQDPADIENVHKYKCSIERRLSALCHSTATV

`CN(C(=O)CN1CCOCC1)c1ccc2sc3c(-c4cccc5c(=O)cc(N6CC7CCC(C6)O7)oc45)cccc3c2c1` [NU5455]: the inhibition at 1 µM worked out at 0.9%.
